# According to PubChem BioAssay (NCI):
#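 Compound exposure: 48 hours, 5 concentrations, 96-well plates. GI50 is the concentration that inhibits growth by half. The concentration for full growth arrest is given as TGI.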
# Assays:
# Assay in all cases: NCI anticancer screen, dose series, 48 h
# [1] = system: HCC-2998 colon
# [2] = system: MCF7 breast
# [3] = system: EKVX NSCLC
# [4] = system: KM12 colon
# [5] = system: A549 NSCLC
# [6] = system: UO-31 renal
# [7] = system: DU-145 prostate
# [8] = system: IGROV1 ovarian
# [9] = system: M14 melanoma
# [10] = system: HOP-62 NSCLC
# [11] = system: HCT-15 colon
# [12] = system: ACHN renal
# [13] = system: OVCAR-3 ovarian
# [14] = system: K-562 leukemia
# [15] = system: SNB-19 CNS
# [16] = system: PC-3 prostate
# [17] = system: SK-MEL-2 melanoma
# [18] = system: SF-539 CNS
# [19] = system: CCRF-CEM leukemia
# [20] = system: HL-60(TB) leukemia
# [21] = system: RPMI-8226 leukemia
# [22] = system: HT29 colon
# [23] = system: NCI-H522 lung
# [24] = system: NCI-H460 lung
# [25] = system: OVCAR-8 ovarian
# [26] = system: MDA-MB-231 breast
# [27] = system: MOLT-4 leukemia
# [28] = system: OVCAR-5 ovarian
# [29] = system: UACC-257 melanoma
# [30] = system: HCT-116 colon
# [31] = system: UACC-62 melanoma
# [32] = system: SF-268 CNS
# [33] = system: NCI/ADR-RES ovarian
# [34] = system: CAKI-1 renal
# [35] = system: MDA-MB-435
# [36] = system: COLO 205 colon
# [37] = system: SF-295 CNS
# [38] = system: OVCAR-4 ovarian
# [39] = system: NCI-H23 lung
# [40] = system: SK-MEL-5 melanoma
# [41] = system: MALME-3M melanoma
# [42] = system: 786-0 renal
# [43] = system: BT-549 breast
# [44] = system: SNB-75 CNS
# [45] = system: SK-MEL-28 melanoma
# [46] = system: A498 renal
structure (smiles),measurement,setting,value
COc1ccc2[nH]c3c(C)c4ccnc(NCCCN(C)CCCNc5ccc([N+](=O)[O-])c6[nH]c7ccccc7c(=O)c56)c4c(C)c3c2c1,TGI,[1],568 nM
same,TGI,[2],95.4 nM
same,TGI,[3],964 nM
same,TGI,[4],1430 nM
same,TGI,[5],78.3 nM
same,TGI,[6],2210 nM
same,TGI,[7],1270 nM
same,TGI,[8],755 nM
same,TGI,[9],988 nM
same,TGI,[10],1060 nM
same,TGI,[11],680 nM
same,TGI,[12],648 nM
same,TGI,[13],1200 nM
same,TGI,[14],4410 nM
same,TGI,[15],1420 nM
same,TGI,[16],1210 nM
same,TGI,[17],1460 nM
same,TGI,[18],726 nM
same,TGI,[19],4120 nM
same,TGI,[20],50000 nM
same,TGI,[21],50000 nM
same,TGI,[22],107 nM
same,TGI,[23],822 nM
same,TGI,[24],67.8 nM
same,TGI,[25],1110 nM
same,TGI,[26],1810 nM
same,TGI,[27],989 nM
same,TGI,[28],1260 nM
CCCN1CCN(c2ccc3nc(-c4ccc5nc(-c6ccc(C(F)(F)F)cc6)[nH]c5c4)[nH]c3c2)CC1,GI50,[1],1890 nM
same,TGI,[1],3460 nM
same,GI50,[3],1870 nM
same,TGI,[3],3330 nM
same,GI50,[29],1850 nM
same,TGI,[29],3570 nM
same,GI50,[4],1780 nM
same,TGI,[4],3320 nM
same,GI50,[30],1380 nM
same,TGI,[30],2710 nM
same,GI50,[31],1660 nM
same,TGI,[31],3230 nM
same,GI50,[32],1880 nM
same,TGI,[32],3560 nM
same,GI50,[7],1900 nM
same,TGI,[7],3360 nM
same,GI50,[33],6460 nM
same,TGI,[33],> 100000 nM
same,GI50,[9],1480 nM
same,TGI,[9],2880 nM
same,GI50,[10],1560 nM
same,TGI,[10],3150 nM
same,GI50,[34],1760 nM
same,TGI,[34],3200 nM
same,GI50,[12],1600 nM
same,TGI,[12],2960 nM
same,GI50,[35],1860 nM
same,TGI,[35],3470 nM
same,GI50,[13],1650 nM
same,TGI,[13],3070 nM
same,GI50,[36],1520 nM
same,TGI,[36],3240 nM
same,GI50,[17],1920 nM
same,TGI,[17],3580 nM
same,GI50,[37],1660 nM
same,TGI,[37],3100 nM
same,GI50,[38],1750 nM
same,TGI,[38],3440 nM
same,GI50,[39],1710 nM
same,TGI,[39],3220 nM
same,GI50,[18],1770 nM
same,TGI,[18],3200 nM
same,GI50,[40],1770 nM
same,TGI,[40],3480 nM
same,GI50,[20],2000 nM
same,TGI,[20],3760 nM
same,GI50,[41],1350 nM
same,TGI,[41],2770 nM
same,GI50,[42],1780 nM
same,TGI,[42],3270 nM
same,GI50,[43],1750 nM
same,TGI,[43],3200 nM
same,GI50,[44],1500 nM
same,TGI,[44],2930 nM
same,GI50,[45],1780 nM
same,TGI,[45],3250 nM
same,GI50,[26],1980 nM
same,TGI,[26],3520 nM
same,GI50,[46],1870 nM
same,TGI,[46],3770 nM
same,GI50,[27],1870 nM
same,TGI,[27],3620 nM
same,GI50,[28],1930 nM
same,TGI,[28],3360 nM
